We go through eight molecules from PubChem BioAssay (NCI).

SMILES strings stand for the structures.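 Briefly, cells in 96-well plates were exposed to five compound concentrations for 48 h, and endpoints were estimated by linear interpolation. GI50 = concentration required for 50% inhibition of growth. TGI: concentration producing complete growth inhibition.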

Among the test systems are PC-3 prostate; TK-10 renal; HL-60(TB) leukemia; MDA-MB-435; SK-MEL-5 melanoma; SK-MEL-28 melanoma; OVCAR-3 ovarian; HCT-116 colon; NCI/ADR-RES ovarian; OVCAR-8 ovarian.
Experiment in all cases: NCI-60 cell line screen, 48 h

Consider `C[C@]12CC[C@@H]3c4ccc(O)cc4CC[C@H]3[C@@H]1CC(Cc1ccccc1)(Cc1ccccc1)C2=O`, for which the GI50 is 4.11 µM in the assay on PC-3 prostate; 19.9 µM in the assay on TK-10 renal; 4.75 µM in the assay on HL-60(TB) leukemia; 20.7 µM with MDA-MB-435; 17.9 µM in the assay with SK-MEL-5 melanoma; 19.8 µM with SK-MEL-28 melanoma. Further, the GI50 was 16 µM in the assay with OVCAR-3 ovarian, 8.59 µM in the assay with HCT-116 colon, 16.5 µM in the assay on NCI/ADR-RES ovarian and 21.5 µM in the assay on OVCAR-8 ovarian. Also, the TGI in the assay on PC-3 prostate came to 15.5 µM; in the assay with TK-10 renal, 43 µM; with HL-60(TB) leukemia it was 20.9 µM; in the assay with MDA-MB-435 it was 57 µM; in the assay with SK-MEL-5 melanoma it was 31.8 µM; in the assay with SK-MEL-28 melanoma, 36.9 µM. The TGI amounted to 38.3 µM in the assay on OVCAR-3 ovarian, 20.7 µM with HCT-116 colon, 30.7 µM in the assay on NCI/ADR-RES ovarian and 61.3 µM in the assay on OVCAR-8 ovarian.
For `CC[C@H](C)[C@H](NC(=O)c1ncccn1)C(=O)N(C)[C@H](C[C@@H](OC(C)=O)c1nc(C(=O)N[C@@H](Cc2ccccc2)C[C@H](C)C(=O)OC)cs1)C(C)C`, the GI50 with PC-3 prostate is 1.46 µM; in the assay with TK-10 renal it was 16.6 µM; in the assay with HL-60(TB) leukemia, 0.588 µM; with MDA-MB-435, 0.393 µM; with SK-MEL-5 melanoma it was 0.848 µM; in the assay with SK-MEL-28 melanoma, 3.51 µM. Moreover, the GI50 was 0.796 µM in the assay on OVCAR-3 ovarian, 0.929 µM in the assay with HCT-116 colon, 11.7 µM in the assay with NCI/ADR-RES ovarian and 2.25 µM in the assay with OVCAR-8 ovarian. Moreover, the TGI was greater than 25 µM with PC-3 prostate; greater than 25 µM in the assay on TK-10 renal; 1.26 µM in the assay on HL-60(TB) leukemia; 1.08 µM in the assay on MDA-MB-435; 4.77 µM in the assay on SK-MEL-5 melanoma; greater than 25 µM in the assay with SK-MEL-28 melanoma. The TGI in the assay on OVCAR-3 ovarian, in the assay with HCT-116 colon, in the assay with NCI/ADR-RES ovarian and with OVCAR-8 ovarian was greater than 25 µM in each case.
Regarding `COc1cc(OCCCN2CCCC2)ccc1Nc1ncc(Cl)c(Nc2ccccc2P(C)(C)=O)n1`, the GI50 was 4.11 µM with PC-3 prostate; 0.983 µM with TK-10 renal; 1.36 µM with HL-60(TB) leukemia; 1.65 µM in the assay on MDA-MB-435; 3.71 µM in the assay on SK-MEL-5 melanoma; 6.34 µM in the assay with SK-MEL-28 melanoma. Moreover, the GI50 with OVCAR-3 ovarian is 2.75 µM; in the assay with HCT-116 colon, 1.74 µM; with NCI/ADR-RES ovarian, 12.6 µM; with OVCAR-8 ovarian it was 3.65 µM. The TGI with PC-3 prostate was 49.6 µM; in the assay with TK-10 renal, 4.91 µM; in the assay with HL-60(TB) leukemia, 6.19 µM; in the assay with MDA-MB-435, greater than 42.6 µM; in the assay on SK-MEL-5 melanoma, 15.8 µM; in the assay with SK-MEL-28 melanoma, 26.6 µM. In addition, the TGI was 12 µM with OVCAR-3 ovarian, 7.24 µM with HCT-116 colon, greater than 77.4 µM in the assay with NCI/ADR-RES ovarian and 38.8 µM in the assay with OVCAR-8 ovarian.
Regarding `CC1(C)CC[C@]2(C(=O)NCCNCCN)CC[C@]3(C)C(=CC[C@@H]4[C@@]5(C)CCC(=O)C(C)(C)[C@@H]5CC[C@]43C)[C@@H]2C1`, the GI50 was 1.82 µM in the assay on PC-3 prostate; 1.91 µM with TK-10 renal; 2.07 µM with HL-60(TB) leukemia; 1.75 µM with MDA-MB-435; 1.8 µM with SK-MEL-5 melanoma; 1.75 µM with SK-MEL-28 melanoma. Besides, the GI50 in the assay on OVCAR-3 ovarian is 1.85 µM; with HCT-116 colon, 1.75 µM; with NCI/ADR-RES ovarian, 7.81 µM; in the assay on OVCAR-8 ovarian, 2.15 µM. The TGI in the assay with PC-3 prostate came out at 3.61 µM; with TK-10 renal, 4.1 µM; in the assay with HL-60(TB) leukemia, 4.71 µM; with MDA-MB-435, 3.19 µM; with SK-MEL-5 melanoma, 3.22 µM; in the assay with SK-MEL-28 melanoma it was 3.2 µM. Besides, the TGI with OVCAR-3 ovarian came to 3.29 µM; with HCT-116 colon, 3.21 µM; with NCI/ADR-RES ovarian, 22.7 µM; in the assay on OVCAR-8 ovarian it was 4.9 µM.
As for `O=c1oc2ccc(F)cc2c(=O)n1-c1ccc(I)cc1F`, the GI50 in the assay with PC-3 prostate was 1.48 µM; in the assay with TK-10 renal it was 1.06 µM; with HL-60(TB) leukemia, 0.366 µM; in the assay with MDA-MB-435, 0.419 µM; in the assay on SK-MEL-5 melanoma it was 0.224 µM; with SK-MEL-28 melanoma it was 0.392 µM. Further, the GI50 was 0.37 µM in the assay on OVCAR-3 ovarian, 0.387 µM in the assay on HCT-116 colon, 0.522 µM in the assay on NCI/ADR-RES ovarian and 0.872 µM in the assay with OVCAR-8 ovarian. Moreover, the TGI came to 6.58 µM in the assay on PC-3 prostate; 17.5 µM in the assay on TK-10 renal; 1.83 µM in the assay with HL-60(TB) leukemia; 3.94 µM with MDA-MB-435; 0.521 µM with SK-MEL-5 melanoma; 1.89 µM in the assay with SK-MEL-28 melanoma. For the same molecule, the TGI in the assay with OVCAR-3 ovarian was 6.36 µM; in the assay with HCT-116 colon, 2.03 µM; in the assay on NCI/ADR-RES ovarian, 5.89 µM; with OVCAR-8 ovarian, greater than 41.9 µM.
For the molecule `COc1ccc2c(c1)C(=O)/C(=C/c1ccc(O)cc1)O2`, the GI50 with PC-3 prostate was 9.48 µM; in the assay with TK-10 renal it was 15 µM; with HL-60(TB) leukemia, 1.35 µM; with MDA-MB-435, 6.73 µM; in the assay with SK-MEL-5 melanoma, 15.4 µM; in the assay with SK-MEL-28 melanoma it was 14.3 µM. For the same molecule, the GI50 in the assay with OVCAR-3 ovarian is 2.28 µM; with HCT-116 colon, 4.42 µM; in the assay on NCI/ADR-RES ovarian, 26.1 µM; in the assay on OVCAR-8 ovarian, 27.2 µM. The TGI with PC-3 prostate turned out to be 24.7 µM; in the assay with TK-10 renal it was 31 µM; with HL-60(TB) leukemia it was 2.95 µM; in the assay on MDA-MB-435, 20.5 µM; in the assay with SK-MEL-5 melanoma, 30.5 µM; in the assay with SK-MEL-28 melanoma, 29.6 µM. The TGI in the assay on OVCAR-3 ovarian was 5.29 µM; in the assay on HCT-116 colon, 18.2 µM; in the assay with NCI/ADR-RES ovarian, greater than 83.6 µM; with OVCAR-8 ovarian, greater than 75 µM.
Take `Oc1ccc(Br)cc1C=NC1CCCCC1`: the TGI in the assay on PC-3 prostate was greater than 100 µM; with TK-10 renal it was greater than 100 µM; with HL-60(TB) leukemia it was 44.5 µM; in the assay with MDA-MB-435, greater than 100 µM; in the assay on SK-MEL-5 melanoma, 43.8 µM; in the assay with SK-MEL-28 melanoma, greater than 100 µM. Moreover, the TGI in the assay on OVCAR-3 ovarian is greater than 100 µM; in the assay with HCT-116 colon, 48.8 µM; in the assay with NCI/ADR-RES ovarian, greater than 100 µM; in the assay on OVCAR-8 ovarian it was greater than 100 µM.
As for `N#Cc1c(N)c(C(=O)c2ccc3c(c2)OCCO3)n2c1CCCC2`, the GI50 is 4.32 µM with PC-3 prostate; greater than 28.5 µM in the assay with TK-10 renal; 2.8 µM in the assay with HL-60(TB) leukemia; 0.362 µM with MDA-MB-435; 3.32 µM in the assay with SK-MEL-5 melanoma; 4.5 µM with SK-MEL-28 melanoma. The GI50 is 2.88 µM in the assay with OVCAR-3 ovarian, 3.55 µM with HCT-116 colon, 1.12 µM in the assay with NCI/ADR-RES ovarian and 4.21 µM with OVCAR-8 ovarian. Moreover, the TGI in the assay with PC-3 prostate was greater than 100 µM; in the assay with TK-10 renal, greater than 100 µM; in the assay with HL-60(TB) leukemia it was greater than 27 µM; in the assay with MDA-MB-435, 2.07 µM; in the assay with SK-MEL-5 melanoma, greater than 100 µM; with SK-MEL-28 melanoma, greater than 100 µM. For the same molecule, the TGI with OVCAR-3 ovarian was greater than 28.3 µM; in the assay with HCT-116 colon, greater than 100 µM; in the assay on NCI/ADR-RES ovarian it was greater than 52.5 µM; with OVCAR-8 ovarian it was greater than 100 µM.
